Laboratory results: patent publication US10406207B2, “Peptide conjugates of GLP-1 receptor agonists and gastrin and their use” (priority 2010, dated 2019)
Like-named read-outs stand apart in the source and are kept apart here. Numbered stars: 1 amine (or outer) side, 2 acyl side, 3 side chain; on linkers, the order of the positions; unused ones are H or OH. Square brackets hold non-standard residues; d marks the D form. Side chains are listed from the residue outwards. Peptide text beside a SMILES is read from it. * marks the point of attachment. γGlu = O=C(O)[C@H](CCC(=O)[*:2])N[*:1]; Palmitoyl = CCCCCCCCCCCCCCCC(=O)*; Orn = NCCC[C@H](N)C(=O)O; AEEA = NCCOCCOCC(=O)O

Legend:
[1] = target: T1, human GLP-1 R (Homo sapiens, UniProt P43220); test: Human GLP-1 receptor efficacy assay (cAMP induction, FlashPlate); assay type: cell-based; conditions: read-out: hGLP-1 R EC50
T1 construct: expressed in transfected cells
T1 sequence (P43220 24-463): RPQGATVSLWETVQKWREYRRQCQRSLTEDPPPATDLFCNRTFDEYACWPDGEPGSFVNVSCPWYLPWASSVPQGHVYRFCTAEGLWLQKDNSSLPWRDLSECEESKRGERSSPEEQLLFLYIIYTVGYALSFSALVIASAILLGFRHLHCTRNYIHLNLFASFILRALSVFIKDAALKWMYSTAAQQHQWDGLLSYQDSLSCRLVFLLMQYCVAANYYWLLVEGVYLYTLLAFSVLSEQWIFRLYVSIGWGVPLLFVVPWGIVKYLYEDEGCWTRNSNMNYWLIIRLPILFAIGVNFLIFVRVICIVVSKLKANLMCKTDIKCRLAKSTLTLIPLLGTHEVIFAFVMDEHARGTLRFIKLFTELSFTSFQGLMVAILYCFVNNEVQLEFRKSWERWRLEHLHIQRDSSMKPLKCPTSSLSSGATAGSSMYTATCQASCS
Protocol: On the day of analysis, growth medium was removed and the cells were washed once with 200 μl Tyrode buffer [Tyrode's Salts (9.6 g/l), 10 mM HEPES, pH 7.4]. […] The reaction was stopped by addition of 25 μl 0.5 M HCl and incubated on ice for 60 min.

[2] = target: T2, human CCK-B R (Homo sapiens, UniProt P32239); test: Human CCK-B receptor efficacy assay (AlphaScreen SureFire p-ERK); assay type: cell-based; conditions: read-out: hCCK-B R EC50
T2 construct: expressed in transfected cells
T2 sequence (P32239 1-447): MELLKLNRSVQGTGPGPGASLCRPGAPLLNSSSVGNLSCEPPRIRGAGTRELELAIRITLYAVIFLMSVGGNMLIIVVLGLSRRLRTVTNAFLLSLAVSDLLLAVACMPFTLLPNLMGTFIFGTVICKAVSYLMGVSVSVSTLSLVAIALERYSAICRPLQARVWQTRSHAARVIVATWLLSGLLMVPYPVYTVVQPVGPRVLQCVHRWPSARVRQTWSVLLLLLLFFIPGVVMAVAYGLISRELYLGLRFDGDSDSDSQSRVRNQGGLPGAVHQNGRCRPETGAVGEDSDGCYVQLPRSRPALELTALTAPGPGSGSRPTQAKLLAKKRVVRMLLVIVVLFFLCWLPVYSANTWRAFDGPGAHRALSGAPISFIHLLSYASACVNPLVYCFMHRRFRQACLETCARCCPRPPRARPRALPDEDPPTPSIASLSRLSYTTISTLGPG

Molecule | EC50 ([1]; Table 2) | EC50 ([2]; Table 2) | EC50 ([1]; Table 3) | EC50 ([2]; Table 3)
CC[C@H](C)[C@H](NC(=O)[C@H](Cc1ccccc1)NC(=O)[C@H](CC(C)C)NC(=O)[C@H](CCCN)NC(=O)[C@@H](NC(=O)[C@H](C)NC(=O)[C@H](CCC(=O)O)NC(=O)[C@H](CCC(=O)O)NC(=O)[C@H](CCC(=O)O)NC(=O)[C@H](CCSC)NC(=O)[C@H](CCC(N)=O)NC(=O)[C@H](CCCCN)NC(=O)[C@H](CO)NC(=O)[C@H](CC(C)C)NC(=O)[C@H](CC(=O)O)NC(=O)[C@H](CO)NC(=O)[C@@H](NC(=O)[C@H](Cc1ccccc1)NC(=O)[C@@H](NC(=O)CNC(=O)[C@H](CCC(=O)O)NC(=O)CNC(=O)[C@@H](N)Cc1c[nH]cn1)[C@@H](C)O)[C@@H](C)O)C(C)C)C(=O)N[C@@H](CCC(=O)O)C(=O)N[C@@H](Cc1c[nH]c2ccccc12)C(=O)N[C@@H](CC(C)C)C(=O)N[C@@H](CCCCN)C(=O)N[C@@H](CC(N)=O)C(=O)NCCOCCOCC(=O)NCCOCCOCC(=O)N[C@@H](Cc1ccc(O)cc1)C(=O)NCC(=O)N[C@@H](Cc1c[nH]c2ccccc12)C(=O)N[C@@H](CC(C)C)C(=O)N[C@@H](CC(=O)O)C(=O)N[C@@H](Cc1ccccc1)C(N)=O [Compound 66, [Orn20]Exendin-4(1-28)-Peg3-Peg3-[Leu4]Gastrin6] (H-HGEGTFTSDLSKQMEEEAV[Orn]LFIEWLKN[AEEA][AEEA]YGWLDF-NH2) | 0.038 nM | 15 nM |  | 
CC[C@H](C)[C@H](NC(=O)[C@H](Cc1ccccc1)NC(=O)[C@H](CC(C)C)NC(=O)[C@H](CCCNC(=N)N)NC(=O)[C@@H](NC(=O)[C@H](C)NC(=O)[C@H](CCC(=O)O)NC(=O)[C@H](CCC(=O)O)NC(=O)[C@H](CCC(=O)O)NC(=O)[C@H](CC(C)C)NC(=O)[C@H](Cc1ccc(O)cc1)NC(=O)[C@H](CCCCN)NC(=O)[C@H](CO)NC(=O)[C@H](CC(C)C)NC(=O)[C@H](CCC(=O)O)NC(=O)[C@H](CO)NC(=O)[C@@H](NC(=O)[C@H](Cc1ccccc1)NC(=O)[C@@H](NC(=O)CNC(=O)[C@H](CCC(=O)O)NC(=O)CNC(=O)[C@@H](N)Cc1c[nH]cn1)[C@@H](C)O)[C@@H](C)O)C(C)C)C(=O)N[C@@H](CCC(=O)O)C(=O)N[C@@H](Cc1ccccc1)C(=O)N[C@@H](CC(C)C)C(=O)N[C@@H](CCCCN)C(=O)NCCOCCOCC(=O)N[C@@H](Cc1ccc(O)cc1)C(=O)NCC(=O)N[C@@H](Cc1c[nH]c2ccccc12)C(=O)N[C@@H](CC(C)C)C(=O)N[C@@H](CC(=O)O)C(=O)N[C@@H](Cc1ccccc1)C(N)=O [Compound 102, [Glu9,Leu14,Phe25,Tyr13]Exendin-4(1-27)-Peg3-[Leu4]Gastrin6] | 0.091 nM | 54 nM |  | 
CCCCCCCCCCCCCCCC(=O)N[C@@H](CCC(=O)NCCCC[C@H](NC(=O)CNC(=O)[C@H](CCCNC(=N)N)NC(=O)[C@@H](NC(=O)[C@H](CC(C)C)NC(=O)[C@H](Cc1c[nH]c2ccccc12)NC(=O)[C@H](C)NC(=O)[C@@H](NC(=O)[C@H](Cc1ccccc1)NC(=O)[C@H](CCC(=O)O)NC(=O)[C@H](CCCNC(=N)N)NC(=O)[C@H](C)NC(=O)[C@H](C)NC(=O)[C@H](CCC(N)=O)NC(=O)CNC(=O)[C@H](CCC(=O)O)NC(=O)[C@H](CC(C)C)NC(=O)[C@H](Cc1ccc(O)cc1)NC(=O)[C@H](CO)NC(=O)[C@H](CO)NC(=O)[C@@H](NC(=O)[C@H](CC(=O)O)NC(=O)[C@H](CO)NC(=O)[C@@H](NC(=O)[C@H](Cc1ccccc1)NC(=O)[C@@H](NC(=O)CNC(=O)[C@H](CCC(=O)O)NC(=O)[C@H](C)NC(=O)[C@@H](N)Cc1c[nH]cn1)[C@@H](C)O)[C@@H](C)O)C(C)C)[C@@H](C)CC)C(C)C)C(=O)NCC(=O)NCCOCCOCC(=O)NCCOCCOCC(=O)N[C@@H](Cc1ccc(O)cc1)C(=O)NCC(=O)N[C@@H](Cc1c[nH]c2ccccc12)C(=O)N[C@@H](CC(C)C)C(=O)N[C@@H](CC(=O)O)C(=O)N[C@@H](Cc1ccccc1)C(N)=O)C(=O)O [Compound 108, [Arg26,34,Lys(Hexadecanoyl-isoGlu)36]GLP-1(7-37)-Peg3-Peg3-[Leu4]Gastrin6] (H-HAEGTFTSDVSSYLEGQAAREFIAWLVRGK([γGlu-Palmitoyl])G[AEEA][AEEA]YGWLDF-NH2) |  |  | 0.11 nM | 78 nM
H-HGEGTFTSELSKYLEEEAVRLFIEFLKWLDF-NH2 [Compound 96, [Glu9,Leu14,Phe25,Tyr13]Exendin-4(1-27)-[Leu2]Gastrin4] | 1.2 nM | 211 nM |  | 

Further molecules by falling EC50 ([1]; Table 2), results first:

EC50 ([1]; Table 2) | EC50 ([2]; Table 2) | EC50 ([1]; Table 3) | EC50 ([2]; Table 3) | Molecule
0.079 nM | 14 nM |  |  | CC[C@H](C)[C@H](NC(=O)[C@H](Cc1ccccc1)NC(=O)[C@H](CC(C)C)NC(=O)[C@H](CCCNC(=N)N)NC(=O)[C@@H](NC(=O)[C@H](C)NC(=O)[C@H](CCC(=O)O)NC(=O)[C@H](CCC(=O)O)NC(=O)[C@H](CCC(=O)O)NC(=O)[C@H](CC(C)C)NC(=O)[C@H](Cc1ccc(O)cc1)NC(=O)[C@H](CCCNC(=N)N)NC(=O)[C@H](CO)NC(=O)[C@H](CC(C)C)NC(=O)[C@H](CC(=O)O)NC(=O)[C@H](CO)NC(=O)[C@@H](NC(=O)[C@H](Cc1ccccc1)NC(=O)[C@@H](NC(=O)CNC(=O)[C@H](CCC(=O)O)NC(=O)CNC(=O)[C@@H](N)Cc1c[nH]cn1)[C@@H](C)O)[C@@H](C)O)C(C)C)C(=O)N[C@@H](CCC(=O)O)C(=O)N[C@@H](Cc1ccccc1)C(=O)N[C@@H](CC(C)C)C(=O)N[C@@H](CCCCN)C(=O)NCCOCCOCC(=O)N[C@@H](Cc1ccc(O)cc1)C(=O)NCC(=O)N[C@@H](Cc1c[nH]c2ccccc12)C(=O)N[C@@H](CC(C)C)C(=O)N[C@@H](CC(=O)O)C(=O)N[C@@H](Cc1ccccc1)C(N)=O [Compound 95, [Arg12,Leu14,Phe25,Tyr13]Exendin-4(1-27)-Peg3-[Leu4]Gastrin6] (H-HGEGTFTSDLSRYLEEEAVRLFIEFLK[AEEA]YGWLDF-NH2)
0.068 nM | 18 nM |  |  | CC[C@H](C)[C@H](NC(=O)[C@H](Cc1ccccc1)NC(=O)[C@H](CC(C)C)NC(=O)[C@H](CCCNC(=N)N)NC(=O)[C@@H](NC(=O)[C@H](C)NC(=O)[C@H](CCC(=O)O)NC(=O)[C@H](CCC(=O)O)NC(=O)[C@H](CCC(=O)O)NC(=O)[C@H](CC(C)C)NC(=O)[C@H](Cc1ccc(O)cc1)NC(=O)[C@H](CCCCN)NC(=O)[C@H](CO)NC(=O)[C@H](CC(C)C)NC(=O)[C@H](CC(=O)O)NC(=O)[C@H](CO)NC(=O)[C@@H](NC(=O)[C@H](Cc1ccccc1)NC(=O)[C@@H](NC(=O)CNC(=O)[C@H](CCC(=O)O)NC(=O)CNC(=O)[C@@H](N)Cc1c[nH]cn1)[C@@H](C)O)[C@@H](C)O)C(C)C)C(=O)N[C@@H](CCC(=O)O)C(=O)N[C@@H](Cc1ccccc1)C(=O)N[C@@H](CC(C)C)C(=O)N[C@@H](CCCNC(=N)N)C(=O)NCCOCCOCC(=O)N[C@@H](Cc1ccc(O)cc1)C(=O)NCC(=O)N[C@@H](Cc1c[nH]c2ccccc12)C(=O)N[C@@H](CC(C)C)C(=O)N[C@@H](CC(=O)O)C(=O)N[C@@H](Cc1ccccc1)C(N)=O [Compound 91, [Arg27,Leu14,Phe25,Tyr13]Exendin-4(1-27)-Peg3-[Leu4]Gastrin6] (H-HGEGTFTSDLSKYLEEEAVRLFIEFLR[AEEA]YGWLDF-NH2)
0.058 nM | 26 nM |  |  | CC[C@H](C)[C@H](NC(=O)[C@H](Cc1ccccc1)NC(=O)[C@H](CC(C)C)NC(=O)[C@H](CCCCN)NC(=O)[C@@H](NC(=O)[C@H](C)NC(=O)[C@H](CCC(=O)O)NC(=O)[C@H](CCC(=O)O)NC(=O)[C@H](CCC(=O)O)NC(=O)[C@H](CC(C)C)NC(=O)[C@H](Cc1ccc(O)cc1)NC(=O)[C@H](CCCNC(=N)N)NC(=O)[C@H](CO)NC(=O)[C@H](CC(C)C)NC(=O)[C@H](CC(=O)O)NC(=O)[C@H](CO)NC(=O)[C@@H](NC(=O)[C@H](Cc1ccccc1)NC(=O)[C@@H](NC(=O)CNC(=O)[C@H](CCC(=O)O)NC(=O)CNC(=O)[C@@H](N)Cc1c[nH]cn1)[C@@H](C)O)[C@@H](C)O)C(C)C)C(=O)N[C@@H](CCC(=O)O)C(=O)N[C@@H](Cc1ccccc1)C(=O)N[C@@H](CC(C)C)C(=O)N[C@@H](CCCNC(=N)N)C(=O)NCCOCCOCC(=O)N[C@@H](Cc1ccc(O)cc1)C(=O)NCC(=O)N[C@@H](Cc1c[nH]c2ccccc12)C(=O)N[C@@H](CC(C)C)C(=O)N[C@@H](CC(=O)O)C(=O)N[C@@H](Cc1ccccc1)C(N)=O [Compound 93, [Arg12,27,Leu14,Lys20,Phe25,Tyr13]Exendin-4(1-27)-Peg3-[Leu4]Gastrin6] (H-HGEGTFTSDLSRYLEEEAVKLFIEFLR[AEEA]YGWLDF-NH2)
0.041 nM | 8.5 nM |  |  | CC[C@H](C)[C@H](NC(=O)[C@H](Cc1ccccc1)NC(=O)[C@H](CC(C)C)NC(=O)[C@H](CCCNC(=N)N)NC(=O)[C@@H](NC(=O)[C@H](C)NC(=O)[C@H](CCC(=O)O)NC(=O)[C@H](CCC(=O)O)NC(=O)[C@H](CCC(=O)O)NC(=O)[C@H](CCSC)NC(=O)[C@H](CCC(N)=O)NC(=O)[C@H](CCCCN)NC(=O)[C@H](CO)NC(=O)[C@H](CC(C)C)NC(=O)[C@H](CC(=O)O)NC(=O)[C@H](CO)NC(=O)[C@@H](NC(=O)[C@H](Cc1ccccc1)NC(=O)[C@@H](NC(=O)CNC(=O)[C@H](CCC(=O)O)NC(=O)CNC(=O)[C@@H](N)Cc1c[nH]cn1)[C@@H](C)O)[C@@H](C)O)C(C)C)C(=O)N[C@@H](CCC(=O)O)C(=O)N[C@@H](Cc1ccccc1)C(=O)N[C@@H](CC(C)C)C(=O)N[C@@H](CCCCN)C(=O)N[C@@H](CC(N)=O)C(=O)NCCOCCOCC(=O)NCCOCCOCC(=O)N[C@@H](Cc1ccc(O)cc1)C(=O)NCC(=O)N[C@@H](Cc1c[nH]c2ccccc12)C(=O)N[C@@H](CC(C)C)C(=O)N[C@@H](CC(=O)O)C(=O)N[C@@H](Cc1ccccc1)C(N)=O [Compound 63, [Phe25]Exendin-4(1-28)-Peg3-Peg3-[Leu4]Gastrin6]
